Experimental data reported in patent publication US8618158B2, “Therapeutic agents” (Cancer Research Technology Limited, priority 2008, dated 2013).
Like-named read-outs stand apart in the source and are kept apart here.

What was measured:
[1] = test system: p53-dependent transcriptional activity; test: Luciferase based p53-dependent reporter gene assay; assay type: cell-based
SJSA-1 cell line [2] = test: Western blot of PARP and caspase-3 cleavage in SJSA-1 cells; assay type: cell-based; details: SJSA-1, after 48 hours of treatment, in comparison to nutlin-3
MDM2-p53 interaction = MDM2-p53 interaction (Homo sapiens (Human), UniProt Q00987); test: MDM2-p53 ELISA binding assay
MDM2-p53 interaction, sequence (Q00987 whole entry): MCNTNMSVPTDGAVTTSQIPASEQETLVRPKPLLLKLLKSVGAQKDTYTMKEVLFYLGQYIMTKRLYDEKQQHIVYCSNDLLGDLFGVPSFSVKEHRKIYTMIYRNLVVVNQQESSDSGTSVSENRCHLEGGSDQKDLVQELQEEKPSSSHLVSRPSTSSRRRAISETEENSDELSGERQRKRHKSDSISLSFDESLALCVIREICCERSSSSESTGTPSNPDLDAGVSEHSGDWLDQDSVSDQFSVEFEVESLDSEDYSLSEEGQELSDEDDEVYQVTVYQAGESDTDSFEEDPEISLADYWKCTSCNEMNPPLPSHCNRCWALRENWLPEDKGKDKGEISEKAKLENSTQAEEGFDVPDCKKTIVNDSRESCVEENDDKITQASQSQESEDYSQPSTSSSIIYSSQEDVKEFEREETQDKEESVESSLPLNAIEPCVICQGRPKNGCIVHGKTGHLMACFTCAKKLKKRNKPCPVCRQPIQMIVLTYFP
Protocol: Streptavidin-coated 96-well plates are used to immobilise a biotin-tagged IP3 p53-derived peptide ([…]). This is a peptide analogue derived from the p53 binding site for MDM2 ([…]). […] Aliquots of MDM2 generated by in vitro translation are pre-incubated for 20 minutes at room temperature (i.e. 20-25° C.) with test compounds and controls, before transfer into the IP3-coated 96-well plates.
3-(4-Chloro-phenyl)-3-(4-hydroxy-3,5-dimethoxy-benzyloxy)-2-propyl-2,3-dihydro-isoindolin-1-one (NU8231) is currently included as a standard “lead compound” positive control. […] The AP peptide is included as a positive control for biological evaluation of the isoindolinones in the cell free binding assays.
All compounds are dissolved in DMSO and tested at a range of concentrations in the presence of a fixed final concentration of 5% DMSO.

SJSA-1 cell line [3] = test: Western blot of MDM2, p53 and p21 levels in SJSA-1 cells; assay type: cell-based; details: for levels of p53, p21 and MDM2 protein (FIG. 1): MDM2 amplified SJSA-1 cells, 1-20 μM
Protocol: The medium was then aspirated and the dishes were washed with 3 mL of cold PBS.
The samples were then loaded onto a precast 4-20% gradient polyacrylamide Tris-Glycine gels (15 wells, 1.5 mm thickness, Invitrogen Life Technologies), along with a pre-stained marker protein (SeeBlue, Invitrogen). The Gels were processed in Novex XCell (Invitrogen) at 180V and blotted onto a High Bond C membrane (Amersham Life Science) overnight at 30V.
The membrane was then blocked for one hour at room temperature in TBS-Tween containing 5% non-fat milk (TBST-M) followed by incubation with primary antibodies for MDM2 (MDM2-Ab 1, 1:500, Oncogene), p53 (p53-D07, 1:1000, Novacastra), p21 (p21 Ab1, 1:100, Oncogene) and Actin (Actin AC40, 1:1000, Sigma) in PBST-M for 1 hour.
The membrane was then washed three times in TBST (15 minutes per wash) and then incubated for an additional 1 hour with a anti mouse or a rabbit horseradish peroxidase (HRP) secondary antibody (Dako, 1:1000) in PBST-M followed by a final wash consisting of six washes with TBST at 5 minutes per wash.

[4] = test system: wild-type p53 HCT116 cells; test: Growth inhibition in p53 wild-type HCT116 cells; assay type: cell-based
p53−/− HCT116 cells = test: Growth inhibition in p53−/− HCT116 cells; assay type: cell-based; details: comparison of p53 wt and p53−/− HCT116
[5] = Table 5, read-out: MDM2-p53 ELISA IC50
[6] = Table 2, mean ± SE of n = 3 unless indicated, read-out: ELISA IC50
[7] = Table 1, mean ± SE of n = 3 unless indicated, read-out: ELISA IC50

O=C1c2ccccc2C(O[C@H]2CC[C@@H](O)C2)(c2ccc(Cl)cc2)N1Cc1ccc([N+](=O)[O-])cc1 (stereo partly drawn) [NU8296, 3-(4-chlorophenyl)-3-((1S,3R)-3-hydroxycyclopentyloxy)-2-(4-nitrobenzyl)isoindolin-1-one]
p53 dependent transcriptional activity (FIG. 3) [1]: activation of p53 dependent transcriptional activity
PARP and caspase-3 cleavage (FIG. 4) (SJSA-1 cell line [2]): comparable to those observed with nutlin-3

O=C1c2ccccc2C(OCCCCO)(c2ccc(Br)cc2)N1Cc1ccc([N+](=O)[O-])cc1 (stereo not drawn) [NU8390, 3-(4-bromophenyl)-3-(4-hydroxybutoxy)-2-(4-nitrobenzyl)isoindolin-1-one]
IC50 (MDM2-p53 interaction; Table 3, read-out: MDM2 IC50): 570 ± 59 nM

O=C1c2ccccc2C(OCCCO)(c2ccc(Br)cc2)N1Cc1ccc([N+](=O)[O-])cc1 (stereo not drawn) [NU8392, 3-(4-bromophenyl)-3-(3-hydroxypropoxy)-2-(4-nitrobenzyl)isoindolin-1-one]
IC50 (MDM2-p53 interaction; Table 3, read-out: MDM2 IC50): 1400 ± 160 nM

O=C1c2ccccc2C(OCC2(CO)CC2)(c2ccc(Cl)cc2)N1Cc1ccc(I)cc1 (stereo not drawn) [NCL-00014529, 3-(4-chlorophenyl)-3-(1-hydroxymethylcyclopropylmethoxy)-2-(4-iodobenzyl)-2,3-dihydroisoindol-1-one]
IC50 (MDM2-p53 interaction; [5]): 1500 nM

O=C1c2ccccc2C(OC/C=C\CO)(c2ccc(Cl)cc2)N1Cc1ccc([N+](=O)[O-])cc1 (stereo not drawn) [NU8350, 3-(4-Chlorophenyl)-3-(4-hydroxybut-2-enyloxy)-2-(4-nitrobenzyl)-2,3-dihydroisoindol-1-one]
IC50 (MDM2-p53 interaction; [6]): 402 ± 9 nM

O=C1c2ccccc2C(OCC2(CO)CC2)(c2ccc(Cl)cc2)N1Cc1ccc(Cl)cc1 (stereo not drawn) [NU8416, 2-(4-chlorobenzyl)-3-(4-chlorophenyl)-3-((1-(hydroxymethyl)cyclopropyl)methoxy)isoindolin-1-one]
IC50 (MDM2-p53 interaction; Table 4, read-out: MDM2 IC50): 2310 ± 560 nM

COc1ccc(C2=NC(c3ccc(Cl)cc3)C(c3ccc(Cl)cc3)N2C(=O)N2CCNC(=O)C2)c(OC(C)C)c1 (racemic) [Nutlin-3, (±)-4-[4,5-bis-(4-Chlorophenyl)-2-(2-isopropoxy-4-methoxyphenyl)-4,5-dihydroimidazole-1-carbonyl]-piperazin-2-one]
MDM2, p53 and p21 levels by Western blotting (FIG. 12) (SJSA-1 cell line [3]; SJSA-1 cells, 1 to 20 μM): strong dose dependent increase in MDM2, p53 and p21 levels
growth inhibition (FIGS. 5 and 6) [4]: growth inhibitory
growth inhibition p53 wt versus p53−/− HCT116 (FIGS. 5 and 6) (p53−/− HCT116 cells): greater growth inhibition in the p53 wt HCT116 cell line than the p53−/− HCT116 cells

CC(C)(CO)COC1(c2ccc(Cl)cc2)c2ccccc2C(=O)N1Cc1ccc([N+](=O)[O-])cc1 (stereo not drawn) [NU8353, 3-(4-Chloro-phenyl)-3-(3-hydroxy-2,2-dimethyl-propoxy)-2-(4-nitro-benzyl)-2,3-dihydro-isoindol-1-one]
IC50 (MDM2-p53 interaction; [6]): 395 ± 75 nM

O=C1c2ccccc2C(O)(c2ccc(F)cc2)N1Cc1ccc([N+](=O)[O-])cc1 (stereo not drawn) [NCL-00016657, 3-(4-fluorophenyl)-3-hydroxy-2-(4-nitrobenzyl)-2,3-dihydroisoindol-1-one]
IC50 (MDM2-p53 interaction; [5]): 9460 nM

O=C1c2ccccc2C(OC2C=C[C@@H](O)C2)(c2ccc(Cl)cc2)N1Cc1ccc(Cl)cc1 (stereo in doubt) [NU8293, 3-(4-Chlorophenyl)-3-(4-hydroxycyclopent-2-enyloxy)-2-(4-chlorobenzyl) isoindolin-1-one]
p53 dependent transcriptional activity (FIG. 3) [1]: activation of p53 dependent transcriptional activity
IC50 (MDM2-p53 interaction; [7]): 1500 ± 300 nM
levels of p53, p21 and MDM2 protein (FIG. 1) (SJSA-1 cell line [3]): induction of increased levels of p53, p21 and MDM2 protein

O=C1c2ccccc2C(OCCCCO)(c2ccc(Cl)cc2)N1CCc1ccc([N+](=O)[O-])cc1 (stereo not drawn) [NU8362, 3-(4-Chlorophenyl)-3-(4-hydroxybutoxy)-2-[2-(4-nitrophenyl)ethyl]-2,3-dihydroisoindol-1-one]
IC50 (MDM2-p53 interaction; [7]): 3200 ± 1000 nM

O=C1c2ccccc2C(OCC=CCO)(c2ccc(Cl)cc2)N1Cc1ccc([N+](=O)[O-])cc1 (stereo not drawn) [NU8351, 3-(4-Chlorophenyl)-3-(4-hydroxybut-2-enyloxy)-2-(4-nitrobenzyl)-2,3-dihydroisoindol-1-one]
IC50 (MDM2-p53 interaction; [6]): 405 ± 10 nM

Cc1ccc(CN2C(=O)c3ccccc3C2(O[C@H]2C=C[C@@H](O)C2)c2ccc(Cl)cc2)cc1 (stereo in doubt) [NU8295, 3-(4-Chlorophenyl)-3-(4-hydroxycyclopent-2-enyloxy)-2-(4-methylbenzyl) isoindolin-1-one]
IC50 (MDM2-p53 interaction; [7]): 1400 ± 400 nM
levels of p53, p21 and MDM2 protein (FIG. 1) (SJSA-1 cell line [3]): induction of increased levels of p53, p21 and MDM2 protein

O=C1c2ccccc2C(O[C@H]2C=C[C@@H](O)C2)(c2ccc(Cl)cc2)N1Cc1ccc([N+](=O)[O-])cc1 (stereo in doubt) [NU8297, 3-(4-Chlorophenyl)-3-(4-hydroxycyclopent-2-enyloxy)-2-(4-nitrobenzyl) isoindolin-1-one]
p53 dependent transcriptional activity (FIG. 3) [1]: activation of p53 dependent transcriptional activity
levels of p53, p21 and MDM2 protein (FIG. 1) (SJSA-1 cell line [3]): did not show any evidence of activity

O=C1c2ccccc2C(O)(c2ccc(Cl)cc2)N1Cc1cccc2ccccc12 (stereo not drawn) [NCL-00016046, 3-(4-chlorophenyl)-3-hydroxy-2-naphthalen-1-ylmethyl-2,3-dihydroisoindol-1-one]
IC50 (MDM2-p53 interaction; [5]): 96000 nM

O=C1c2ccccc2C(OC[C@H]2CC[C@H](CO)CC2)(c2ccc(Cl)cc2)N1Cc1ccc([N+](=O)[O-])cc1 (stereo partly drawn) [NU8358, 3-(4-Chlorophenyl)-3-(4-hydroxymethylcyclohexylmethoxy)-2-(4-nitrobenzyl)-2,3-dihydroisoindol-1-one]
IC50 (MDM2-p53 interaction; [6]): 582 ± 75 nM

O=C1c2ccccc2C(O[C@H]2C=C[C@@H](O)C2)(c2ccc(Cl)cc2)N1Cc1ccccc1 (stereo in doubt) [NU8298, 2-Benzyl-3-(4-chlorophenyl)-3-(4-hydroxycyclopent-2-enyloxy) isoindolin-1-one]
IC50 (MDM2-p53 interaction; [7]): 2300 ± 300 nM
